The numbers were not newly measured in patent US9039924B2 (priority 2010, dated 2015), which cites them from elsewhere.

This series relates to rat. Particulars: in vivo; for LD50 values below 1000 or toxic: po.

Consider `NC(N)=O` [CO(NH2)2, urea], for which the “LD50 (oral-rat; mg/kg)” value is 8471 mg/kg.

Regarding `N#C[O-].[K+]` [KCNO, potassium cyanate], the “LD50 values below 1000 or toxic” value is “below 1000”.

On to `O=N[O-].[K+]` [KNO2, potassium nitrite], for which the “LD50 values below 1000 or toxic” value was “below 1000”.

With `O.O.O.O.O.O=S([O-])([O-])=S.[Na+].[Na+]` [Na2S2O3•5H2O, sodium thiosulfate pentahydrate], the “LD50 (oral-rat; mg/kg)” value was 2300 mg/kg.

Turning to `N#CO` [NaCNO, sodium cyanate], the “LD50 (oral-rat; mg/kg)” value was 5 mg/kg and the “LD50 values below 1000 or toxic” value is reported as “below 1000”.

As to `O=NO` [NaNO2, sodium nitrite], the “LD50 values below 1000 or toxic” value is reported as “below 1000”.

As for ammonium thiocyanide [NH4CNS], the “LD50 (oral-rat; mg/kg)” value is reported as 954 mg/kg and the “LD50 values below 1000 or toxic” value is “below 1000”.

Regarding potassium bromide [KBr], the “LD50 (oral-rat; mg/kg)” value is given as 3070 mg/kg.

Take potassium chloride [KCl]: the “LD50 (oral-rat; mg/kg)” value is reported as 2600 mg/kg.

As for “potassium fluoride dihydrate [KF•2(H2O)]”, the “LD50 (oral-rat; mg/kg)” value was 245 mg/kg and the “LD50 values below 1000 or toxic” value is recorded as “below 1000”.

Consider potassium iodide [KI], for which the “LD50 (oral-rat; mg/kg)” value is reported as 1862 mg/kg.

Consider “potassium thiosulfate pentahydrate [K2S2O3•5H2O]”, for which the “LD50 (oral-rat; mg/kg)” value was 802 mg/kg and the “LD50 values below 1000 or toxic” value is given as “below 1000”.
